Reference: PMC5011342, “A high throughput drug screening assay to identify compounds that promote oligodendrocyte differentiation using acutely dissociated and purified oligodendrocyte precursor cells” (BMC Research Notes, 2016)
Read-outs that look alike come from different tables or passages of the source.

How the values were obtained:
[1] = tested on: acutely dissociated and purified rat OPCs; experiment: Acute OL differentiation assay (MBP expression/cell, immunofluorescent image quantification); type: cell-based; details: for activation at 2 µM / activation at 10 µM / EC50 / activation at 0.08 µM / activation at 0.4 µM: Rattus norvegicus; for activation at 2 µM / activation at 10 µM / activation at 0.08 µM / activation at 0.4 µM / 2 uM (% Quet) / 10 uM (% Quet): relative to quetiapine, sheet "All OLga data"; for EC50: average EC50 for induction of OL differentiation from independent biological replicates, eight concentrations; for hit in OL differentiation assay, MRF-TMC: ● = confirmed hit in this paper's assay; for promotion of OL differentiation (in words): MBP expression versus 0.1 % DMSO negative control; for activation at 0.08 µM: test compound at 0.08 uM, read-out: 0.08 uM (% Quet)
Summary of the method: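 This acute differentiation assay used purified rat OPCs from postnatal day 6–7 pups, seeded into PDL/laminin-coated 96-well plates in differentiation medium lacking PDGF and FGF. Compounds were applied in quadruplicate after a 1–2 h preincubation at 37 °C, 10 % CO2, with 0.1 % DMSO negative and 40 ng/ml T3 positive controls in eight wells. After fixation on DIV4, anti-MBP immunofluorescence images yielded MBP expression/cell.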

expanded OPCs = experiment: cells; details: for viability at 0.1 µM / viability at 1 µM / viability at 10 µM: Rattus norvegicus, 72 h
Summary of the method: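 Toxicity screen: compounds added at 0.1, 1 and 10 µM to PDGF-AA-expanded OPCs in 96-well plates, 3-day incubation at 37 °C, 10% CO2, then alamarBlue 1:10 for 4 h with fluorescence readout. Results set screening doses of 10/2, 2/0.4 or 0.4/0.08 µM.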

Mouse OPCs = details: ● = hit reported; cited from earlier work
Rat OPCs = details: ● = hit reported; cited from earlier work
[2] = in vivo models; cited from earlier work
Rat OPCs, Mouse OPCs = details: ● = hit reported; cited from earlier work
[3] = parameters: method as in Trial NCT00039988; details: add-on therapy to capaxone (glatiramir acetate), RRMS patients; ref Trial NCT00039988; cited from earlier work
[4] = clinical trial of MS; cited from earlier work
transplanted hOPCs = tested on: transplanted hOPCs; parameters: method as in PMID 25716865; details: hypomyelinated shiverer/rag2 brain; cited from earlier work
[5] = 2 uM test compound, read-out: OL differentiation, 2 uM (% Quet)
[6] = 10 uM test compound, read-out: OL differentiation, 10 uM (% Quet)
[7] = read-out: 0.1 µM (% DMSO), alamarBlue viability of expanded OPCs, compound at 0.1 µM, sheet All Tox data
[8] = read-out: 1 µM (% DMSO), alamarBlue viability of expanded OPCs, compound at 1 µM, sheet All Tox data
[9] = read-out: 10 µM (% DMSO), alamarBlue viability of expanded OPCs, compound at 10 µM, sheet All Tox data
[10] = test compound at 0.4 uM, NCC library screen, read-out: 0.4 uM (% Quet)
[11] = read-out: 0.1 µM (% DMSO), alamarBlue viability, NCC library compound at 0.1 µM, sheet "All Tox data"
[12] = read-out: 1 µM (% DMSO), alamarBlue viability, NCC library compound at 1 µM, sheet "All Tox data"
[13] = read-out: 10 µM (% DMSO), alamarBlue viability, NCC library compound at 10 µM, sheet "All Tox data"
[14] = test compound at 2 uM, NCC library screen, read-out: 2 uM (% Quet)
[15] = test compound at 10 uM, NCC library screen, read-out: 10 uM (% Quet)
[16] = alamarBlue viability of expanded OPCs, compound at 0.1 µM, relative to DMSO control
[17] = alamarBlue viability of expanded OPCs, compound at 1 µM, relative to DMSO control
[18] = alamarBlue viability of expanded OPCs, compound at 10 µM, relative to DMSO control
[19] = 0.4 uM test compound, read-out: OL differentiation, 0.4 uM (% Quet)
[20] = test compound at 2 uM, NCC library screen
[21] = test compound at 10 uM, NCC library screen
[22] = alamarBlue viability, NCC library compound at 0.1 µM, sheet "All Tox data"
[23] = alamarBlue viability, NCC library compound at 1 µM, sheet "All Tox data"
[24] = alamarBlue viability, NCC library compound at 10 µM, sheet "All Tox data"

O[C@@H]1CCCC[C@H]1N1CCC(c2ccccc2)CC1 (racemic) [Vesamicol, reference compound]
activation at 2 µM [1, 5]: 80.7% | activation at 10 µM [1, 6]: 151% | EC50 [1]: 1400 nM | hit in OL differentiation assay, MRF-TMC [1]: ● | viability at 0.1 µM (expanded OPCs; [7]): 94.3% | viability at 1 µM (expanded OPCs; [8]): 120% | viability at 10 µM (expanded OPCs; [9]): 146% | hit in OL differentiation assay, Najm (Mouse OPCs): ●

CN1[C@@H]2CC[C@H]1C[C@@H](OC(c1ccccc1)c1ccccc1)C2 [Benztropine]
hit in OL differentiation assay, MRF-TMC [1]: ● | hit in OL differentiation assay, Deshmukh (Rat OPCs): ● | stimulating remyelination [2]: efficacy in stimulating remyelination | hit in OL differentiation assay, Najm (Mouse OPCs): ● | hit in OL differentiation assay, Mei (Rat OPCs, Mouse OPCs): ●

CN1CCC[C@@H]1CCO[C@](C)(c1ccccc1)c1ccc(Cl)cc1 [Clemastine]
promotion of OL differentiation (in words) [1]: could promote OL differentiation in our assay similar to benztropine | hit in OL differentiation assay, MRF-TMC [1]: ● | hit in OL differentiation assay, Deshmukh (Rat OPCs): ● | stimulating remyelination [2]: efficacy in stimulating remyelination | hit in OL differentiation assay, Mei (Rat OPCs, Mouse OPCs): ●

OCCN1CCN(CCCN2c3ccccc3Sc3ccc(C(F)(F)F)cc32)CC1 [Fluphenazine, reference compound]
activation at 0.08 µM ([1]; NCC library screen): 92.6% | activation at 0.4 µM [1, 10]: -2.7% | hit in OL differentiation assay, MRF-TMC [1]: ● | viability at 0.1 µM (expanded OPCs; [11]): 159% | viability at 1 µM (expanded OPCs; [12]): 46.8% | viability at 10 µM (expanded OPCs; [13]): 9.6% | hit in OL differentiation assay, Deshmukh (Rat OPCs): ●

CC(C)[N+]1(C)[C@@H]2CC[C@H]1C[C@@H](OC(=O)C(CO)c1ccccc1)C2 (some centres unmarked) [Ipatropium, reference compound]
activation at 2 µM [1, 14]: 21.2% | activation at 10 µM [1, 15]: 38.6% | EC50 [1]: 8500 nM | hit in OL differentiation assay, MRF-TMC [1]: ● | viability at 0.1 µM (expanded OPCs; [11]): 92.6% | viability at 1 µM (expanded OPCs; [12]): 101% | viability at 10 µM (expanded OPCs; [13]): 123% | hit in OL differentiation assay, Deshmukh (Rat OPCs): ● | hit in OL differentiation assay, Mei (Rat OPCs, Mouse OPCs): ●

CCN(CC)CC#CCOC(=O)C(O)(c1ccccc1)C1CCCCC1 (centres unmarked) [Oxybutynin, reference compound]
activation at 2 µM [1, 14]: 91.6% | hit in OL differentiation assay, MRF-TMC [1]: ● | 0.1 µM (% DMSO) (expanded OPCs; [16]): 129.9 % DMSO | 1 µM (% DMSO) (expanded OPCs; [17]): 169.5 % DMSO | 10 µM (% DMSO) (expanded OPCs; [18]): 57.5 % DMSO | hit in OL differentiation assay, Deshmukh (Rat OPCs): ● | hit in OL differentiation assay, Mei (Rat OPCs, Mouse OPCs): ●

OCCN1CCN(CCCN2c3ccccc3Sc3ccc(Cl)cc32)CC1 [Perphenazine, reference compound]
activation at 0.08 µM ([1]; NCC library screen): 95.7% | activation at 0.4 µM [1, 10]: 79% | EC50 [1]: 100 nM | hit in OL differentiation assay, MRF-TMC [1]: ● | 0.1 µM (% DMSO) (expanded OPCs; [16]): 154.3 % DMSO | 1 µM (% DMSO) (expanded OPCs; [17]): 47.1 % DMSO | 10 µM (% DMSO) (expanded OPCs; [18]): 9.2 % DMSO | hit in OL differentiation assay, Deshmukh (Rat OPCs): ●

OCCOCCN1CCN(C2=Nc3ccccc3Sc3ccccc32)CC1 [Quetiapine]
hit in OL differentiation assay, MRF-TMC [1]: ● | hit in OL differentiation assay, Najm (Mouse OPCs): ● | hit in OL differentiation assay, Mei (Rat OPCs, Mouse OPCs): ●

OCc1cc(C(O)CNCCCCCCOCCCCc2ccccc2)ccc1O (centres unmarked) [Salmeterol, reference compound]
activation at 0.4 µM [1, 10]: 55.3% | activation at 2 µM [1, 14]: -32.4% | EC50 [1]: 400 nM | hit in OL differentiation assay, MRF-TMC [1]: ● | viability at 0.1 µM (expanded OPCs; [11]): 115% | viability at 1 µM (expanded OPCs; [12]): 108% | viability at 10 µM (expanded OPCs; [13]): 9.3% | hit in OL differentiation assay, Deshmukh (Rat OPCs): ●

CC/C(=C(\c1ccccc1)c1ccc(OCCN(C)C)cc1)c1ccccc1 [Tamoxifen, reference compound]
activation at 0.08 µM ([1]; NCC library screen): 117% | activation at 0.4 µM [1, 10]: -49.8% | hit in OL differentiation assay, MRF-TMC [1]: ● | 0.1 µM (% DMSO) (expanded OPCs; [16]): 162.2 % DMSO | 1 µM (% DMSO) (expanded OPCs; [17]): 55.1 % DMSO | 10 µM (% DMSO) (expanded OPCs; [18]): 9.5 % DMSO | hit in OL differentiation assay, Najm (Mouse OPCs): ●

CN1CCN(CCCN2c3ccccc3Sc3ccc(C(F)(F)F)cc32)CC1 [Trifluoperazine, reference compound]
activation at 0.4 µM [1, 19]: 155% | activation at 2 µM [1, 5]: -103% | EC50 [1]: 200 nM | hit in OL differentiation assay, MRF-TMC [1]: ● | viability at 0.1 µM (expanded OPCs; [7]): 116% | viability at 1 µM (expanded OPCs; [8]): 85.8% | viability at 10 µM (expanded OPCs; [9]): 11.3% | hit in OL differentiation assay, Deshmukh (Rat OPCs): ●

COc1cc(CNC(=O)CCCC/C=C\C(C)C)ccc1O [Zucapsaicin]
activation at 0.4 µM [1, 19]: 13.2% | activation at 2 µM [1, 5]: -17% | viability at 0.1 µM (expanded OPCs; [7]): 85.6% | viability at 1 µM (expanded OPCs; [8]): 72% | viability at 10 µM (expanded OPCs; [9]): 36.9%

CC(C)(C)NCC(O)c1ccc(O)c(CO)c1 (centres unmarked) [albuterol, reference compound]
promotion of OL differentiation (in words) [1]: not a hit in our screen | activation at 2 µM [1, 5]: -6% | activation at 10 µM [1, 6]: 18.6% | clinical outcomes [3]: improved clinical outcomes

C[C@]12CC[C@@H]3c4ccc(O)cc4CC[C@H]3[C@@H]1C[C@@H](O)[C@@H]2O [estriol]
lesion numbers and volumes [4]: reducing the lesion numbers and volumes

N#Cc1ccc(C(c2ccc(C#N)cc2)n2cncn2)cc1 [letrozole]
activation at 2 µM [1, 5]: 1.2% | activation at 10 µM [1, 6]: -4.8% | viability at 0.1 µM (expanded OPCs; [7]): 92% | viability at 1 µM (expanded OPCs; [8]): 99.2% | viability at 10 µM (expanded OPCs; [9]): 101%

CC(=O)NC[C@H]1CN(c2ccc(N3CCOCC3)c(F)c2)C(=O)O1 [linezolid]
activation at 2 µM [1, 5]: 4.3% | activation at 10 µM [1, 6]: 7.1% | viability at 0.1 µM (expanded OPCs; [11]): 95.7% | viability at 1 µM (expanded OPCs; [12]): 94.1% | viability at 10 µM (expanded OPCs; [13]): 94.7%

CC(Oc1c(Cl)cccc1Cl)C1=NCCN1 (centres unmarked) [lofexidine]
activation at 2 µM [1, 14]: 9.5% | activation at 10 µM [1, 15]: 13.1% | viability at 0.1 µM (expanded OPCs; [11]): 88.5% | viability at 1 µM (expanded OPCs; [12]): 96% | viability at 10 µM (expanded OPCs; [13]): 80.6%

CC(C(=O)O)c1ccc(CC2CCCC2=O)cc1 (centres unmarked) [loxoprofen]
activation at 2 µM [1, 5]: 3.1% | activation at 10 µM [1, 6]: 10.9% | viability at 0.1 µM (expanded OPCs; [11]): 99.8% | viability at 1 µM (expanded OPCs; [12]): 92.5% | viability at 10 µM (expanded OPCs; [13]): 87.6%

O=C(O[C@H]1CN2CCC1CC2)N1CCc2ccccc2[C@@H]1c1ccccc1 [solifenacin]
oligodendrocyte differentiation of transplanted hOPCs (transplanted hOPCs): promoted oligodendrocyte differentiation of transplanted hOPCs

NC(Cc1cc(I)c(Oc2cc(I)c(O)c(I)c2)c(I)c1)C(=O)O (centres unmarked) [thyroxine, reference compound]
promotion of OL differentiation (in words) [1]: able to promote OL differentiation at one or both concentrations tested | activation at 2 µM [1, 14]: -26.7% | activation at 10 µM [1, 15]: -186% | 0.1 µM (% DMSO) (expanded OPCs; [16]): 212.0 % DMSO | 1 µM (% DMSO) (expanded OPCs; [17]): 190.0 % DMSO | 10 µM (% DMSO) (expanded OPCs; [18]): 120.0 % DMSO

HTMT
2 uM (% Quet) [1, 20]: -16.4 % Quet | 10 uM (% Quet) [1, 21]: 21.8 % Quet | 0.1 µM (% DMSO) (expanded OPCs; [22]): 71.6 % DMSO | 1 µM (% DMSO) (expanded OPCs; [23]): 71.0 % DMSO | 10 µM (% DMSO) (expanded OPCs; [24]): 63.6 % DMSO

Methanesulfonamide
2 uM (% Quet) [1, 20]: -6.5 % Quet | 10 uM (% Quet) [1, 21]: 5.8 % Quet | 0.1 µM (% DMSO) (expanded OPCs; [22]): 118.1 % DMSO | 1 µM (% DMSO) (expanded OPCs; [23]): 132.7 % DMSO | 10 µM (% DMSO) (expanded OPCs; [24]): 132.9 % DMSO
